Test results: ChEMBL document CHEMBL3259697, “Identification of type II and III DDR2 inhibitors” (J Med Chem, 2014)
The source made the active and inactive calls. The rule behind the calls is not given here.

Key:
[1] = molecular target: Discoidin domain-containing receptor 2 (Homo sapiens, UniProt Q16832, T654M); test: Inhibition of DDR2 T654M mutant (unknown origin) preincubated for 30 mins before substrate addition by FRET assay
[2] = molecular target: T1, Discoidin domain-containing receptor 2 (Homo sapiens, UniProt Q16832)
T1 sequence (Q16832 whole entry): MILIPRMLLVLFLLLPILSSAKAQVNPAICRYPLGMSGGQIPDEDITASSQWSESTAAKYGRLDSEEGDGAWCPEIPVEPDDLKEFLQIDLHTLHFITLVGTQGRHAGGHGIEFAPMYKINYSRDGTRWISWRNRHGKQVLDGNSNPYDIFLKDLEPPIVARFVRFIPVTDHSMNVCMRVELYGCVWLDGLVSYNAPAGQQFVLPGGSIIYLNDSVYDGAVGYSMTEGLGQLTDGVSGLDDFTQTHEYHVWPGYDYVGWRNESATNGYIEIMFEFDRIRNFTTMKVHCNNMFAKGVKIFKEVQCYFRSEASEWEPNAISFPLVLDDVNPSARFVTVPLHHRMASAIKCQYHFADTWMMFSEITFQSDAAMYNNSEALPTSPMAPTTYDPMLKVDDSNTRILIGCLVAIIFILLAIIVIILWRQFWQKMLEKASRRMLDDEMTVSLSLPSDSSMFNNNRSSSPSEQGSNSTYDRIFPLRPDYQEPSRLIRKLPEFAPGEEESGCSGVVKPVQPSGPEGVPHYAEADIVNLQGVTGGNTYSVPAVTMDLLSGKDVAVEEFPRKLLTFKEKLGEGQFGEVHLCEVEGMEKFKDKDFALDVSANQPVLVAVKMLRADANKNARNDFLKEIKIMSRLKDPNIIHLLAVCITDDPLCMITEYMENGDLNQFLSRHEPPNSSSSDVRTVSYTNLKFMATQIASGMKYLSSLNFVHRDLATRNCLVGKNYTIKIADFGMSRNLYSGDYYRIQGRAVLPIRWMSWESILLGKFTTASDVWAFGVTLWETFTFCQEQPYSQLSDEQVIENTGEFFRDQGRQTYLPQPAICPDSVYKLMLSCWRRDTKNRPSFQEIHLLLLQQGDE
Description: Inhibition of wild type DDR2 (unknown origin) preincubated for 30 mins before substrate addition by FRET assay

[3] = molecular target: T1, Discoidin domain-containing receptor 2; test: Inhibition of DDR2 (unknown origin) after 120 mins by radiometric assay in presence of gamma-[33P]-ATP
[4] = molecular target: T1, Discoidin domain-containing receptor 2; remark: listed apart in the source
Description: Binding affinity to human acrylodan-labeled N-terminal His-tagged DDR2 (558 to 855 aa) by FLiK assay

[5] = molecular target: Epithelial discoidin domain-containing receptor 1 (Homo sapiens, UniProt Q08345); test: Inhibition of DDR1 (unknown origin) after 120 mins by radiometric assay in presence of gamma-[33P]-ATP
Chain of Epithelial discoidin domain-containing receptor 1 (Q08345 whole entry, the tested form may be a part): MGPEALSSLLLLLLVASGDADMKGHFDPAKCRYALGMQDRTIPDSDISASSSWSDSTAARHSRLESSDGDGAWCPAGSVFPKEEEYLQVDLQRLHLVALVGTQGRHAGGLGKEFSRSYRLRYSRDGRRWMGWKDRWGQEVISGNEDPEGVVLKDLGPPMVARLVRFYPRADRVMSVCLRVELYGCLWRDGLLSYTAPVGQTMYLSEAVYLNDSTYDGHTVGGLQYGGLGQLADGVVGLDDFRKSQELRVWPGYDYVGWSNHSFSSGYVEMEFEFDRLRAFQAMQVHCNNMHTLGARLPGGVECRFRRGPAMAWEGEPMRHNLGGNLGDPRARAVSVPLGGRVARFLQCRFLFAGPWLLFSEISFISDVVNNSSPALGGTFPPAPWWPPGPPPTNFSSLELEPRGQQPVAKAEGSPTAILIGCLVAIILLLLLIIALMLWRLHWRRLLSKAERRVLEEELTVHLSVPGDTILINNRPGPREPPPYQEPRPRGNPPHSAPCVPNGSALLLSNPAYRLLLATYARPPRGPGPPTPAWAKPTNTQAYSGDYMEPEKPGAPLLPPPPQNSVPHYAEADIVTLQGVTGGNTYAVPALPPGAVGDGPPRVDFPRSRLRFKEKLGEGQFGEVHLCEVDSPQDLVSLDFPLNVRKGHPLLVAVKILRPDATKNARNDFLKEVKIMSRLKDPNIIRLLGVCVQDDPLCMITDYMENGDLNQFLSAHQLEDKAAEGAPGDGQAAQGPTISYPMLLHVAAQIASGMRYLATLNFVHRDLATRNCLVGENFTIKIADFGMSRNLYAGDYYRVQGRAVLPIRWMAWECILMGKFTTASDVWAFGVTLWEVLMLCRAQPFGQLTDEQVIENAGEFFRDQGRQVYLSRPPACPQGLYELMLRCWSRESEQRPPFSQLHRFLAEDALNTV

[6] = molecular target: T1, Discoidin domain-containing receptor 2; test: Binding affinity to human DDR2 by Ambit assay
[7] = molecular target: T2, Discoidin domain-containing receptor 2 (Homo sapiens) (UniProt Q16832); test: Reversible binding affinity to human acrylodan-labeled N-terminal His-tagged DDR2 (558 to 855 aa) at 100 nM by fluorescence spectroscopy
T2 sequence (whole entry): T1 sequence (Q16832 whole entry)

[8] = molecular target: T1, Discoidin domain-containing receptor 2; test: Binding affinity to human acrylodan-labeled N-terminal His-tagged DDR2 (558 to 855 aa) by fluorescence spectroscopy

Chain of Discoidin domain-containing receptor 2 (Homo sapiens, UniProt Q16832, T654M) (Q16832 22-855 T654M limits assumed): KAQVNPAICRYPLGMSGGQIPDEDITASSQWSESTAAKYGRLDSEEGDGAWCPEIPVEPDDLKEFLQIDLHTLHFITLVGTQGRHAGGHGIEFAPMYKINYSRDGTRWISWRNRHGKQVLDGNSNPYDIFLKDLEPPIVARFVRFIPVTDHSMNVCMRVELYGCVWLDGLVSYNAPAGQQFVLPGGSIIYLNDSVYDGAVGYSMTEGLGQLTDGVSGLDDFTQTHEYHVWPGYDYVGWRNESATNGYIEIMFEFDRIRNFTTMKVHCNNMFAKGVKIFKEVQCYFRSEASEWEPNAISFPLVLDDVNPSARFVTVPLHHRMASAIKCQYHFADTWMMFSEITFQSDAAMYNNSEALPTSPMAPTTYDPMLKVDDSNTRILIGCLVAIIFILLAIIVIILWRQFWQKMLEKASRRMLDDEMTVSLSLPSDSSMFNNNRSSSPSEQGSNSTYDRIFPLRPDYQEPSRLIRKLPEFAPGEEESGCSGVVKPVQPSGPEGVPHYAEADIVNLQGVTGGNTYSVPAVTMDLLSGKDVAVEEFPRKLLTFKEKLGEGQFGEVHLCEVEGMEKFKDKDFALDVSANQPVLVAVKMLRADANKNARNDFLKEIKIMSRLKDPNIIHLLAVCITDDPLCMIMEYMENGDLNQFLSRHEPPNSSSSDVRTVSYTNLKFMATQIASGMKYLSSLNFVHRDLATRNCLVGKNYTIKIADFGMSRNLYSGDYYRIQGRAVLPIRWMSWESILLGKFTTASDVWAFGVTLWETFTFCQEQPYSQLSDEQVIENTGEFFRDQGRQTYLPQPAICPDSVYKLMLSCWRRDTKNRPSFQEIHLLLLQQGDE

| Structure (SMILES) | IC50 [1] [nM] | IC50 [2] [nM] | IC50 [3] [nM] | Kd [4] [nM] | IC50 [5] [nM] | Kd [6] [nM] | Activity [7] | Kd [8] [nM] |
| --- | --- | --- | --- | --- | --- | --- | --- | --- |
| CC(C)(C)c1cc(NC(=O)Nc2cccc(Nc3ncnc4ccccc34)c2)n(-c2cccc(N)c2)n1 | 73 | 2 | 75 | > 1000 |  |  |  |  |
| Cc1ccc(-n2nc(C(C)(C)C)cc2NC(=O)Nc2nccs2)cc1 | 1150 | 4700 |  | 702 |  |  |  |  |
| Cc1cccc(-n2nc(C(C)(C)C)cc2NC(=O)Nc2ccc(Cl)cc2)c1 | 808 | 183 |  | 15 |  |  |  |  |
| NC(=O)c1c(OCc2c(F)cc(Br)cc2F)nsc1NC(=O)NCCCCN1CCCC1 [OSI-632] | 450 | 24 |  | 422 |  |  |  |  |
| Cc1ccc(-n2nc(C(C)(C)C)cc2NC(=O)Nc2nc(CCOCc3ccncc3)cs2)cc1 | 2 | 19 | 65 | 63 | 68 |  |  |  |
| CC(C)(C)c1cc(NC(=O)Nc2nc(CCOCc3ccccc3)cs2)n(-c2cccc(CC(=O)O)c2)n1 | 1670 | 10700 |  | > 1000 |  |  |  |  |
| CSc1ccc(-c2nc3cnccn3c2NC2CCCCC2)cc1 |  |  |  | > 1000 |  |  |  |  |
| O=C(O)Cc1cccc(-n2nc(C3CCCC3)cc2NC(=O)Nc2nc(CCOCc3ccccc3)cs2)c1 | 380 | 1560 |  | 385 |  |  |  |  |
| COc1ccccc1NC(=O)c1sc2nc(C)c(C(=O)Nc3ccc(C)cc3C)c(-c3ccc(NC(C)=O)cc3)c2c1N |  |  |  | > 1000 |  |  |  |  |
| CCOCCNc1cccc(-n2nc(C(C)(C)C)cc2NC(=O)Nc2ccc(OCCN3CCOCC3)c3ccccc23)c1 |  | 14400 |  | > 1000 |  |  |  |  |
| O=C(O)Cc1ccc(-n2nc(C3CCCC3)cc2NC(=O)Nc2nc(CCOCc3ccccc3)cs2)cc1 | 1840 | 2170 |  | > 1000 |  |  |  |  |
| CC(C)(C)c1cc(NC(=O)Nc2ccc(OCCN3CCOCC3)c3ccccc23)n(-c2cccc(N)c2)n1 | 72 | 8 |  | 20 |  |  |  |  |
| CC(C)(C)c1cc(NC(=O)Nc2nccs2)n(-c2ccc(CC(=O)O)cc2)n1 | 820 | 9170 |  | > 1000 |  |  |  |  |
| CC(C)(C)c1cc(NC(=O)Nc2cccc3ccccc23)n(-c2cccc([N+](=O)[O-])c2)n1 | ≥ 100000 | 332 |  | 428 |  |  |  |  |
| Cc1ccc(-n2nc(C(C)(C)C)cc2NC(=O)Nc2cccc3ccccc23)cc1 | ≥ 100000 | 408 |  | 252 |  |  |  |  |
| CC(C)(C)c1cc(NC(=O)Nc2nc(CCOCc3ccc(F)cc3)cs2)n(-c2ccc(CC(=O)O)cc2)n1 | 76 | 1230 |  | 424 |  |  |  |  |
| O=C(Nc1ccc(OCCN2CCOCC2)c2ccccc12)c1cc(F)cc(N2CCOCC2)c1 |  | 10900 |  | 915 |  |  |  |  |
| CCC(=O)Nc1cccc(-n2nc(C(C)(C)C)cc2NC(=O)Nc2ccc(OCCN3CCOCC3)c3ccccc23)c1 | 687 | 29 |  | 30 |  |  |  |  |
| CC(C)(C)c1cc(NC(=O)Nc2ccc(Cl)cc2)n(-c2cccc(N)c2)n1 | 717 | 558 |  | 15 |  | 15 | Active | 3.8 |
| Nc1c(-c2ccccc2)oc2ccccc2c1=O | ≥ 100000 | 80800 |  | > 1000 |  |  |  |  |
| Cc1ccc(-n2nc(C(C)(C)C)cc2NC(=O)Nc2nc(CCOCc3ccc(F)cc3)cs2)cc1 | 230 | 3040 |  | 406 |  |  |  |  |
| CC(C)(C)c1cc(NC(=O)Nc2nc(CCOCc3ccccc3)cs2)n(-c2ccc(CC(=O)O)cc2)n1 | 670 | 2230 |  | 382 |  |  |  |  |
| CC(C)(C)c1cc(NC(=O)Nc2ccccc2)n(-c2cccc(N)c2)n1 | 2500 | 9410 |  | > 1000 |  |  |  |  |
| CC(C)(C)c1cc(NC(=O)Nc2ccc(Nc3ncnc4ccccc34)cc2)n(-c2cccc(N)c2)n1 | 1 | 3 | 18 | 93 |  |  |  |  |
| CC(C)(C)c1cc(NC(=O)Nc2ccc(Cl)cc2)n(-c2cccc([N+](=O)[O-])c2)n1 | 1230 | 856 |  | 412 |  |  |  |  |
